Patent publication US7432302B2, “Composition containing polyamine transport inhibitor and use thereof” (MediQuest Therapeutics, Inc., priority 2001, dated 2008)
Like-named read-outs stand apart in the source and are kept apart here.

Experiments:
[1] = target: T1, spermine synthase (Homo sapiens, UniProt P52788); settings: cited from earlier work
T1 sequence (P52788 1-366): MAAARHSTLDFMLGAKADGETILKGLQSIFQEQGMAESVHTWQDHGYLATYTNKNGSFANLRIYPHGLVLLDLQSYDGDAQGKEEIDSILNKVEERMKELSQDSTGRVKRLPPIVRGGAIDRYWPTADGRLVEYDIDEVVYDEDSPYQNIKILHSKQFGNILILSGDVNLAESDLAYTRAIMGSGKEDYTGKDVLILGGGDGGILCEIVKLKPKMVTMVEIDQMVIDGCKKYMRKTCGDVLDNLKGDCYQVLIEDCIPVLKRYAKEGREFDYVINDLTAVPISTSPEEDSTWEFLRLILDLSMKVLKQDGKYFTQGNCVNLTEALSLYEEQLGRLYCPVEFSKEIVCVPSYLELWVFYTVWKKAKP

[2] = system: cultured follicles; settings: in culture media: DFMO 500 μM; N-butyl-1,3-diaminopropane 50 μM; cited from earlier work
[3] = system: epidermal ornithine decarboxylase activity; settings: mice, 0.5% BHT in food for two weeks, UV radiation; cited from earlier work
[4] = target: T2, ODC (Rattus norvegicus, UniProt P09057); settings: cited from earlier work
T2 construct: from tissue; host or cells: rat liver
T2 sequence (P09057 1-461): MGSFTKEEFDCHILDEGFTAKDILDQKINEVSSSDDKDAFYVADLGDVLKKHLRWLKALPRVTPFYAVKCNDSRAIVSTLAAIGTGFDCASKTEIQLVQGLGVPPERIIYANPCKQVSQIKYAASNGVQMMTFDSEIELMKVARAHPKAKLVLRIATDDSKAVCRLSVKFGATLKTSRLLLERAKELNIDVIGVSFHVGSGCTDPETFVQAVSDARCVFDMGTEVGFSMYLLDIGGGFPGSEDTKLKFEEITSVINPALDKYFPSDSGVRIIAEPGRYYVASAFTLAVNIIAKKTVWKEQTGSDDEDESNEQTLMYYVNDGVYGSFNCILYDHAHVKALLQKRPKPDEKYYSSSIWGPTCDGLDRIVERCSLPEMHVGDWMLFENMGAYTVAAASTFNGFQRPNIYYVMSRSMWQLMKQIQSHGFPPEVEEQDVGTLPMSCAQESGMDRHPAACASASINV

[5] = system: cell growth in the presence of DFMO; test: Growth inhibition assay in combination with DFMO; assay type: cell-based; settings: for EC50: 144 h; for Ave EC50 Value: 0.5 µM SPD
Method: Medias were obtained from Mediatech, Inc. (Hemdon, Va.) and serums from Gibco BRL (Gaithersburg, Md.). 50 U/ml penicillin, 50 μg/ml streptomycin and 2 mM L-glutamine (all from Bio Whittaker, Walkersville, Md.) were included in all cultures. […] When cells were cultured with polyamines or ORI compounds, 1 mM aminoguanidine (AG; Sigma) was included to inhibit serum amine oxidase activity.

[6] = system: polyamine transporter; test: Polyamine transport inhibition (3H-spermidine uptake, MDA-MB-231 cells); assay type: cell-based, human
Method: The Ki values were determined using double reciprocal Lineweaver-Burke plot analyses.

[7] = system: ODC activity; settings: at 4 to 5 hr after TPA treatment; cited from earlier work

CCCCNCCCN [N-butyl-1,3-diaminopropane]
Ki [1]: 11.9 nM
effect on the growth of cultured follicles [2]: no effect

Cc1cc(C(C)(C)C)c(O)c(C(C)(C)C)c1 [BHT, butylated hydroxytoluene]
inhibition of measured ODC activity [3]: 70%

NCCCC(N)(CCl)C(=O)O (stereo not shown) [—CH2Cl]
t1/2 ([4]; Table 1, at 100 μM): t1/2 = 22 min
Ki value ([4]; Table 1 substrate analogs, apparent dissociation constant, rat liver enzyme): No satd kinetics

CCCCCCCCCCCCCCCC(=O)NCCCC[C@H](N)C(=O)NCCCNCCCCNCCCN [IA4]
potency in cell growth inhibition assay [5]: demonstrated potency
EC50 ([5]; read-out: Ave EC50 Value): 130 nM
EC50 ([5]; read-out: Ave EC50 value): 130 nM
potency in transporter inhibition assay [6]: demonstrated potency

CCCCCCCCCCCCCC(=O)O[C@@H]1[C@@H](C)[C@@]2(O)[C@@H](C=C(CO)C[C@]3(O)C(=O)C(C)=C[C@@H]23)[C@@H]2C(C)(C)[C@]12OC(C)=O [TPA, 12-O-tetradecanoyl-phorbol-13-acetate]
peak ODC activity greater than control [7]: 230 fold
